{"source": "patent US12617783B2", "about": "“Heterocyclic GLP-1R agonists” (BIOMEA FUSION, INC., priority 2024, dated 2026)", "data": [{"target": "T1, human GLP-1R (Homo sapiens, UniProt P43220)", "T1 construct": "host or cells: HEK293", "T1 sequence (P43220 24-463)": "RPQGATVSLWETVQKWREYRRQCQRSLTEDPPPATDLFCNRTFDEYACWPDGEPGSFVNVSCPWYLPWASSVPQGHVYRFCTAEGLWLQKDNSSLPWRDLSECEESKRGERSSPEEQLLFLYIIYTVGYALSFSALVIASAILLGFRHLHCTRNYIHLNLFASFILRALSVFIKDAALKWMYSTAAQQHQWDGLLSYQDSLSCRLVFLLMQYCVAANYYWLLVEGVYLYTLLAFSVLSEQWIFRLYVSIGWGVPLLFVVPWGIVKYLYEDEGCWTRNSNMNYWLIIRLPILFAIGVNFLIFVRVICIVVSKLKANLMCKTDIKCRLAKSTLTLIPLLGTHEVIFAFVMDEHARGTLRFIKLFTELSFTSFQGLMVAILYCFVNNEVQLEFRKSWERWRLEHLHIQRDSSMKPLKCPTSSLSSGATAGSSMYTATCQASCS", "experiment": "GLP-1R cAMP assay (Example B1a, HTRF, 30 min at room temperature)", "type": "cell-based", "settings": "cAMP accumulation in HEK293 expressing human GLP-1R, no BETP, 30 min room temperature (Method B1a, compounds ID 1-609), Table 1; read-out: EC50", "in_short": "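Competitive HTRF read-out of cAMP after 30 min room-temperature stimulation, BETP absent, of human GLP-1R-HEK293 cells (1,000/well) in HEPES buffer with 500 μM IBMX and 0.1% BSA. Activation normalised to GLP-1(7-37) positive control. EC50 from 4-parameter non-linear regression.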", "units": {"EC50": "nM"}, "values": [{"smiles": "Cc1cc(-n2nc3c(c2-n2ccn(-c4ccc5c(cnn5C)c4F)c2=O)[C@@H]2CC[C@H](C3)N2C(=O)c2cc3cc([C@H]4CCOC(C)(C)C4)ccc3n2[C@@]2(C(=O)NS(C)(=O)=O)C[C@@H]2C)cc(C)c1F", "note": "[Compound 201, cis-(1S,2S)-1-[5-[(4S)-2,2-dimethyltetrahydropyran-4-yl]-2-[(1S,8R)-4-(4-fluoro-3,5-dimethyl-phenyl)-3-[3-(4-fluoro-1-methyl-indazol-5-yl)-2-oxo-imidazol-1-yl]-4,5,11-triazatricyclo[6.2.1.02,6]undeca-2,5-diene-11-carbonyl]indol-1-yl]-2-methyl-N-methylsulfonyl-cyclopropanecarboxamide]", "EC50": "> 10000"}, {"smiles": "Cc1cc(-n2nc3c(c2-n2ccn(-c4ccc5c(cnn5C)c4F)c2=O)[C@@H]2CC[C@H](C3)N2C(=O)c2cc3nc(C4CCOC(C)(C)C4)sc3n2C2(c3noc(=O)[nH]3)CC2C)cc(C)c1F", "note": "(stereo partly drawn) [Compound 202, 3-[1-[2-(2,2-dimethyltetrahydropyran-4-yl)-5-[(1S,8R)-4-(4-fluoro-3,5-dimethyl-phenyl)-3-[3-(4-fluoro-1-methyl-indazol-5-yl)-2-oxo-imidazol-1-yl]-4,5,11-triazatricyclo[6.2.1.02,6]undeca-2,5-diene-11-carbonyl]pyrrolo[3,2-d]thiazol-4-yl]-2-methyl-cyclopropyl]-4H-1,2,4-oxadiazol-5-one]", "EC50": "> 10000"}, {"smiles": "CCP(=O)(CC)c1ccc(-n2ccn(-c3c4c(nn3-c3cc(C)c(F)c(C)c3)C[C@H]3CC[C@@H]4N3C(=O)c3cc4cc([C@H]5CCOC(C)(C)C5)ccc4n3[C@@]3(c4noc(=O)[nH]4)C[C@@H]3C)c2=O)cc1NC", "note": "[Compound 203, 3-[(1S,2S)-1-[2-[(1S,8R)-3-[3-[4-diethylphosphoryl-3-(methylamino)phenyl]-2-oxo-imidazol-1-yl]-4-(4-fluoro-3,5-dimethyl-phenyl)-4,5,11-triazatricyclo[6.2.1.02,6]undeca-2,5-diene-11-carbonyl]-5-[(4S)-2,2-dimethyltetrahydropyran-4-yl]indol-1-yl]-2-methyl-cyclopropyl]-4H-1,2,4-oxadiazol-5-one]", "EC50": 919}, {"smiles": "Cc1cc(-n2nc3c(c2-n2ccn(-c4ccc5c(cnn5C)c4F)c2=O)[C@@H]2CC[C@H](C3)N2C(=O)c2cc3cc([C@H]4CCOC(C)(C)C4)ccc3n2[C@@]2(C(=O)NS(=O)(=O)C3CC3)C[C@@H]2C)cc(C)c1F", "note": "[Compound 204, cis-(1S,2S)-N-cyclopropylsulfonyl-1-[5-[(4S)-2,2-dimethyltetrahydropyran-4-yl]-2-[(1S,8R)-4-(4-fluoro-3,5-dimethyl-phenyl)-3-[3-(4-fluoro-1-methyl-indazol-5-yl)-2-oxo-imidazol-1-yl]-4,5,11-triazatricyclo[6.2.1.02,6]undeca-2,5-diene-11-carbonyl]indol-1-yl]-2-methyl-cyclopropanecarboxamide]", "EC50": "> 10000"}, {"smiles": "Cc1cc(-n2nc3c(c2-n2ccn(-c4ccc5c(cnn5C)c4F)c2=O)[C@@H]2CC[C@H](C3)N2C(=O)c2cc3cc([C@H]4CCOC(C)(C)C4)ccc3n2[C@@]2(C(=O)NS(=O)(=O)N(C)C)C[C@@H]2C)cc(C)c1F", "note": "[Compound 205, cis-(1S,2S)-N-(dimethylsulfamoyl)-1-[5-[(4S)-2,2-dimethyltetrahydropyran-4-yl]-2-[(1S,8R)-4-(4-fluoro-3,5-dimethyl-phenyl)-3-[3-(4-fluoro-1-methyl-indazol-5-yl)-2-oxo-imidazol-1-yl]-4,5,11-triazatricyclo[6.2.1.02,6]undeca-2,5-diene-11-carbonyl]indol-1-yl]-2-methyl-cyclopropanecarboxamide]", "EC50": "> 10000"}, {"smiles": "Cc1cc(-n2nc3c(c2-n2ccn(-c4ccc5c(cnn5C)c4F)c2=O)[C@@H]2CC[C@H](C3)N2C(=O)c2cc3nc([C@H]4CCOC(C)(C)C4)sc3n2[C@@]2(c3noc(=O)[nH]3)C[C@@H]2C)cc(C)c1F", "note": "[Compound 206, 3-[(1S,2S)-1-[2-[(4S)-2,2-dimethyltetrahydropyran-4-yl]-5-[(1S,8R)-4-(4-fluoro-3,5-dimethyl-phenyl)-3-[3-(4-fluoro-1-methyl-indazol-5-yl)-2-oxo-imidazol-1-yl]-4,5,11-triazatricyclo[6.2.1.02,6]undeca-2,5-diene-11-carbonyl]pyrrolo[3,2-d]thiazol-4-yl]-2-methyl-cyclopropyl]-4H-1,2,4-oxadiazol-5-one]", "EC50": 1440}, {"smiles": "Cc1cc(-n2nc3c(c2-n2ccn(-c4ccc5c(cnn5C)c4F)c2=O)[C@@H]2CC[C@H](C3)N2C(=O)c2cc3nc([C@@H]4CCOC(C)(C)C4)sc3n2[C@@]2(c3noc(=O)[nH]3)C[C@@H]2C)cc(C)c1F", "note": "[Compound 207, 3-[(1S,2S)-1-[2-[(4R)-2,2-dimethyltetrahydropyran-4-yl]-5-[(1S,8R)-4-(4-fluoro-3,5-dimethyl-phenyl)-3-[3-(4-fluoro-1-methyl-indazol-5-yl)-2-oxo-imidazol-1-yl]-4,5,11-triazatricyclo[6.2.1.02,6]undeca-2,5-diene-11-carbonyl]pyrrolo[3,2-d]thiazol-4-yl]-2-methyl-cyclopropyl]-4H-1,2,4-oxadiazol-5-one]", "EC50": "> 10000"}, {"smiles": "Cc1cc(-n2nc3c(c2-n2ccn(-c4ccc5c(cnn5C)c4F)c2=O)[C@@H]2CC[C@H](C3)N2C(=O)c2cc3cc(C4CCOCC4)ccc3n2[C@@]2(c3noc(=O)[nH]3)C[C@@H]2C)cc(C)c1F", "note": "[Compound 208, 3-((1S,2S)-1-(2-((4S,7R)-3-(3-(4-fluoro-1-methyl-1H-indazol-5-yl)-2-oxo-2,3-dihydro-1H-imidazol-1-yl)-2-(4-fluoro-3,5-dimethylphenyl)-2,4,5,6,7,8-hexahydro-4,7-epiminocyclohepta [c]pyrazole-9-carbonyl)-5-(tetrahydro-2H-pyran-4-yl)-1H-indol-1-yl)-2-methylcyclopropyl)-1,2,4-oxadiazol-5 (4H)-one]", "EC50": 182}, {"smiles": "Cc1cc(-n2nc3c(c2-n2ccn(-c4ccc5c(cnn5C)c4F)c2=O)[C@@H]2CC[C@H](C3)N2C(=O)c2cc3cc(C4CCOC(C)(C)C4)ncc3n2[C@@]2(c3noc(=O)[nH]3)C[C@@H]2C)cc(C)c1F", "note": "(stereo partly drawn) [Compound 209, 3-((1S,2S)-1-(5-(2,2-dimethyltetrahydro-2H-pyran-4-yl)-2-((4S,7R)-3-(3-(4-fluoro-1-methyl-1H-indazol-5-yl)-2-oxo-2,3-dihydro-1H-imidazol-1-yl)-2-(4-fluoro-3,5-dimethylphenyl)-2,4,5,6,7,8-hexahydro-4,7-epiminocyclohepta [c]pyrazole-9-carbonyl)-1H-pyrrolo[2,3-c]pyridin-1-yl)-2-methylcyclopropyl)-1,2,4-oxadiazol-5 (4H)-one]", "EC50": 117}, {"smiles": "Cc1cc(-n2nc3c(c2-n2ccn(-c4ccc5c(cnn5C)c4F)c2=O)[C@@H]2CC[C@H](C3)N2C(=O)c2cc3nc(C4CCOC(C)(C)C4)ccc3n2[C@@]2(c3noc(=O)[nH]3)C[C@@H]2C)cc(C)c1F", "note": "(stereo partly drawn) [Compound 210, 3-[(1S,2S)-1-[5-(2,2-dimethyltetrahydropyran-4-yl)-2-[(1S,8R)-4-(4-fluoro-3,5-dimethyl-phenyl)-3-[3-(4-fluoro-1-methyl-indazol-5-yl)-2-oxo-imidazol-1-yl]-4,5,11-triazatricyclo[6.2.1.02,6]undeca-2,5-diene-11-carbonyl]pyrrolo[3,2-b]pyridin-1-yl]-2-methyl-cyclopropyl]-4H-1,2,4-oxadiazol-5-one]", "EC50": 959}, {"smiles": "Cc1cc(-n2nc3c(c2-n2ccn(-c4ccc5c(cnn5C)c4F)c2=O)[C@@H]2CC[C@H](C3)N2C(=O)c2cc3cc([C@H]4CCOC(C)(C)C4)ncc3n2[C@@]2(c3noc(=O)[nH]3)C[C@@H]2C)cc(C)c1F", "note": "[Compound 211, 3-((1S,2S)-1-(5-((S)-2,2-dimethyltetrahydro-2H-pyran-4-yl)-2-((4S,7R)-3-(3-(4-fluoro-1-methyl-1H-indazol-5-yl)-2-oxo-2,3-dihydro-1H-imidazol-1-yl)-2-(4-fluoro-3,5-dimethylphenyl)-2,4,5,6,7,8-hexahydro-4,7-epiminocyclohepta [c]pyrazole-9-carbonyl)-1H-pyrrolo[2,3-c]pyridin-1-yl)-2-methylcyclopropyl)-1,2,4-oxadiazol-5 (4H)-one]", "EC50": 51}, {"smiles": "Cc1cc(-n2nc3c(c2-n2ccn(-c4ccc5c(cnn5C)c4F)c2=O)[C@@H]2CC[C@H](C3)N2C(=O)c2cc3cc([C@@H]4CCOC(C)(C)C4)ncc3n2[C@@]2(c3noc(=O)[nH]3)C[C@@H]2C)cc(C)c1F", "note": "[Compound 212, 3-((1S,2S)-1-(5-((R)-2,2-dimethyltetrahydro-2H-pyran-4-yl)-2-((4S,7R)-3-(3-(4-fluoro-1-methyl-1H-indazol-5-yl)-2-oxo-2,3-dihydro-1H-imidazol-1-yl)-2-(4-fluoro-3,5-dimethylphenyl)-2,4,5,6,7,8-hexahydro-4,7-epiminocyclohepta [c]pyrazole-9-carbonyl)-1H-pyrrolo[2,3-c]pyridin-1-yl)-2-methylcyclopropyl)-1,2,4-oxadiazol-5 (4H)-one]", "EC50": 697}, {"smiles": "Cc1cc(-n2nc3c(c2-n2ccn(-c4ccc5c(cnn5C)c4F)c2=O)[C@@H]2CC[C@H](C3)N2C(=O)c2cc3cc(C4CCOC5(CC5)C4)ccc3n2[C@@]2(c3noc(=O)[nH]3)C[C@@H]2C)cc(C)c1F", "note": "(stereo partly drawn) [Compound 213, 3-((1S,2S)-1-(2-((4S,7R)-3-(3-(4-fluoro-1-methyl-1H-indazol-5-yl)-2-oxo-2,3-dihydro-1H-imidazol-1-yl)-2-(4-fluoro-3,5-dimethylphenyl)-2,4,5,6,7,8-hexahydro-4,7-epiminocyclohepta [c]pyrazole-9-carbonyl)-5-(4-oxaspiro[2.5]octan-7-yl)-1H-indol-1-yl)-2-methylcyclopropyl)-1,2,4-oxadiazol-5 (4H)-one]", "EC50": 81.2}]}]}
